Laboratory results reported in ChEMBL document CHEMBL3611985, “Synthesis and structure-activity relationships of novel 9-oxime acylides with improved bactericidal activity” (2015).
Converted amounts (≈) assume the structure as drawn.

Experiments:
Type in all cases: functional
[1] = system: Streptococcus pneumoniae; test: Antimicrobial activity against erythromycin-susceptible Streptococcus pneumoniae ATCC 49619 incubated for 20 to 24 hrs by two-fold microbroth dilution method
[2] = system: Streptococcus pneumoniae; test: Antimicrobial activity against penicillin-susceptible Streptococcus pneumoniae PU09 incubated for 20 to 24 hrs by two-fold microbroth dilution method
[3] = system: Streptococcus pyogenes; test: Antimicrobial activity against Streptococcus pyogenes 01-968 expressing inducible ermA incubated for 20 to 24 hrs by two-fold microbroth dilution method
[4] = system: Staphylococcus aureus; test: Antimicrobial activity against methicillin-resistant Staphylococcus aureus PU32 expressing inducible ermA incubated for 20 hrs by two-fold microbroth dilution method; conditions: PU32, 20 h
[5] = system: Staphylococcus aureus; test: Antimicrobial activity against methicillin-resistant Staphylococcus aureus PU20 expressing constitutive ermC incubated for 20 hrs by two-fold microbroth dilution method; conditions: PU20, 20 h
[6] = system: Haemophilus influenzae; test: Antimicrobial activity against azithromycin-susceptible and ampicillin-resistant Haemophilus influenzae 11P037 incubated for 20 to 24 hrs by two-fold microbroth dilution method
[7] = system: Streptococcus pyogenes; test: Antimicrobial activity against Streptococcus pyogenes 12-207 expressing mef incubated for 20 to 24 hrs by two-fold microbroth dilution method
[8] = system: Moraxella catarrhalis; test: Antimicrobial activity against erythromycin-susceptible Moraxella catarrhalis 11B366 incubated for 20 hrs by two-fold microbroth dilution method; conditions: 11B366, 20 h
[9] = system: Streptococcus pneumoniae; test: Bactericidal activity against erythromycin-susceptible Streptococcus pneumoniae ATCC 49619 incubated for 20 to 24 hrs followed by sub-culturing for 24 hrs in absence of compound
[10] = system: Streptococcus pneumoniae; test: Bactericidal activity against penicillin-susceptible Streptococcus pneumoniae PU09 incubated for 20 to 24 hrs followed by sub-culturing for 24 hrs in absence of compound
[11] = system: Streptococcus pyogenes; test: Bactericidal activity against Streptococcus pyogenes 01-968 expressing inducible ermA incubated for 20 to 24 hrs followed by sub-culturing for 24 hrs in absence of compound
[12] = system: Streptococcus pyogenes; test: Bactericidal activity against Streptococcus pyogenes 12-207 expressing mef incubated for 20 to 24 hrs followed by sub-culturing for 24 hrs in absence of compound
[13] = system: Haemophilus influenzae; test: Bactericidal activity against azithromycin-susceptible and ampicillin-resistant Haemophilus influenzae 11P037 incubated for 20 to 24 hrs followed by sub-culturing for 24 hrs in absence of compound
[14] = system: Staphylococcus aureus; test: Bactericidal activity against methicillin-resistant Staphylococcus aureus PU32 expressing inducible ermA incubated for 20 hrs followed by sub-culturing for 24 hrs in absence of compound
[15] = system: Staphylococcus aureus; test: Bactericidal activity against methicillin-resistant Staphylococcus aureus PU20 expressing constitutive ermC incubated for 20 hrs followed by sub-culturing for 24 hrs in absence of compound
[16] = system: Moraxella catarrhalis; test: Bactericidal activity against erythromycin-susceptible Moraxella catarrhalis 11B366 incubated for 20 hrs followed by sub-culturing for 24 hrs in absence of compound
[17] = system: Streptococcus pneumoniae; test: Ratio of MBC to MIC against erythromycin-susceptible Streptococcus pneumoniae ATCC 49619
[18] = system: Streptococcus pneumoniae; test: Ratio of MBC to MIC against penicillin-susceptible Streptococcus pneumoniae PU09
[19] = system: Streptococcus pyogenes; test: Ratio of MBC to MIC against Streptococcus pyogenes 01-968 expressing inducible ermA
[20] = system: Streptococcus pyogenes; test: Ratio of MBC to MIC against Streptococcus pyogenes 12-207 expressing mef
[21] = system: Haemophilus influenzae; test: Ratio of MBC to MIC against azithromycin-susceptible and ampicillin-resistant Haemophilus influenzae 11P037
[22] = system: Staphylococcus aureus; test: Ratio of MBC to MIC against methicillin-resistant Staphylococcus aureus PU32 expressing inducible ermA
[23] = system: Staphylococcus aureus; test: Ratio of MBC to MIC against methicillin-resistant Staphylococcus aureus PU20 expressing constitutive ermC
[24] = system: Moraxella catarrhalis; test: Ratio of MBC to MIC against erythromycin-susceptible Moraxella catarrhalis 11B366

Row | SMILES | MIC [1] | MIC [2] | MIC [3] | MIC [4] | MIC [5] | MIC [6] | MIC [7] | MIC [8] | MBC [9] | MBC [10] | MBC [11] | MBC [12] | MBC [13] | MBC [14] | MBC [15] | MBC [16] | Ratio [17] | Ratio [18] | Ratio [19] | Ratio [20] | also measured
1 | CC[C@H]1OC(=O)[C@H](C)[C@@H](OC(=O)Cc2ccccn2)[C@H](C)[C@@H](O[C@@H]2O[C@H](C)C[C@H](N(C)C)[C@H]2O)[C@](C)(OC)C[C@@H](C)/C(=N\OCC#Cc2cncc(C(N)=O)c2)[C@H](C)[C@H]2OC(=O)O[C@@]21C | 0.016 µg/mL (≈ 0.0176 µM) | 0.5 µg/mL (≈ 0.551 µM) | 0.031 µg/mL (≈ 0.0341 µM) | 0.5 µg/mL (≈ 0.551 µM) | 256 µg/mL (≈ 282 µM) | 8 µg/mL (≈ 8.81 µM) | 0.016 µg/mL (≈ 0.0176 µM) | 1 µg/mL (≈ 1.1 µM) | 0.016 µg/mL (≈ 0.0176 µM) | 1 µg/mL (≈ 1.1 µM) | 0.062 µg/mL (≈ 0.0683 µM) | > 0.125 µg/mL | 64 µg/mL (≈ 70.5 µM) | > 4 µg/mL | > 256 µg/mL | 2 µg/mL (≈ 2.2 µM) | 1 | 2 | 2 | >8 | Ratio [21]: 8; Ratio [22]: >8; Ratio [23]: >2; Ratio [24]: 2
2 | CC[C@H]1OC(=O)[C@H](C)[C@@H](OC(=O)Cc2ccccn2)[C@H](C)[C@@H](O[C@@H]2O[C@H](C)C[C@H](N(C)C)[C@H]2O)[C@](C)(OC)C[C@@H](C)/C(=N\OCC#Cc2cccnc2)[C@H](C)[C@H]2OC(=O)O[C@@]21C | ≤ 0.008 µg/mL | 0.5 µg/mL (≈ 0.578 µM) | 0.25 µg/mL (≈ 0.289 µM) | 1 µg/mL (≈ 1.16 µM) | 128 µg/mL (≈ 148 µM) | 8 µg/mL (≈ 9.25 µM) | 0.125 µg/mL (≈ 0.145 µM) | 2 µg/mL (≈ 2.31 µM) | 0.008 µg/mL (≈ 0.00925 µM) | 1 µg/mL (≈ 1.16 µM) | 0.25 µg/mL (≈ 0.289 µM) | > 1 µg/mL | > 64 µg/mL | > 8 µg/mL | 128 µg/mL (≈ 148 µM) | 4 µg/mL (≈ 4.62 µM) | >=1 | 2 | 1 | >8 | Ratio [21]: >8; Ratio [22]: >8; Ratio [23]: 1; Ratio [24]: 2
3 | CC[C@H]1OC(=O)[C@H](C)C(=O)[C@H](C)[C@@H](O[C@@H]2O[C@H](C)C[C@H](N(C)C)[C@H]2O)[C@](C)(OC)C[C@@H](C)/C(=N\OC/C=C/c2cnc3ccccc3c2)[C@H](C)[C@H]2OC(=O)O[C@@]21C | ≤ 0.008 µg/mL | 0.25 µg/mL (≈ 0.314 µM) | 0.062 µg/mL (≈ 0.0779 µM) | 1 µg/mL (≈ 1.26 µM) | 32 µg/mL (≈ 40.2 µM) | 8 µg/mL (≈ 10.1 µM) | 0.016 µg/mL (≈ 0.0201 µM) | 2 µg/mL (≈ 2.51 µM) | 0.031 µg/mL (≈ 0.0389 µM) | 0.5 µg/mL (≈ 0.628 µM) | > 0.5 µg/mL | > 0.125 µg/mL | > 64 µg/mL | > 8 µg/mL | 32 µg/mL (≈ 40.2 µM) | 2 µg/mL (≈ 2.51 µM) | >=4 | 2 | >8 | >8 | Ratio [21]: >8; Ratio [22]: >8; Ratio [23]: 1; Ratio [24]: 1
4 | CC[C@H]1OC(=O)[C@H](C)[C@@H](OC(=O)Cc2ccccn2)[C@H](C)[C@@H](O[C@@H]2O[C@H](C)C[C@H](N(C)C)[C@H]2O)[C@](C)(OC)C[C@@H](C)/C(=N\OCC#Cc2cncc(N)c2)[C@H](C)[C@H]2OC(=O)O[C@@]21C | ≤ 0.008 µg/mL | 0.5 µg/mL (≈ 0.568 µM) | 0.125 µg/mL (≈ 0.142 µM) | 0.5 µg/mL (≈ 0.568 µM) | 128 µg/mL (≈ 145 µM) | 8 µg/mL (≈ 9.09 µM) | 0.125 µg/mL (≈ 0.142 µM) | 1 µg/mL (≈ 1.14 µM) | 0.008 µg/mL (≈ 0.00909 µM) | 1 µg/mL (≈ 1.14 µM) | 0.5 µg/mL (≈ 0.568 µM) | > 1 µg/mL | > 64 µg/mL | > 4 µg/mL | 256 µg/mL (≈ 291 µM) | 2 µg/mL (≈ 2.27 µM) | >=1 | 2 | 4 | >8 | Ratio [21]: >8; Ratio [22]: >8; Ratio [23]: 2; Ratio [24]: 2
5 | CC[C@H]1OC(=O)[C@H](C)[C@@H](OC(=O)Cc2ccccn2)[C@H](C)[C@@H](O[C@@H]2O[C@H](C)C[C@H](N(C)C)[C@H]2O)[C@](C)(OC)C[C@@H](C)/C(=N\OCC#Cc2ccc3nccnc3c2)[C@H](C)[C@H]2OC(=O)O[C@@]21C | ≤ 0.008 µg/mL | 0.5 µg/mL (≈ 0.546 µM) | 0.031 µg/mL (≈ 0.0338 µM) | 1 µg/mL (≈ 1.09 µM) | 128 µg/mL (≈ 140 µM) | 16 µg/mL (≈ 17.5 µM) | 0.062 µg/mL (≈ 0.0677 µM) | 2 µg/mL (≈ 2.18 µM) | 0.008 µg/mL (≈ 0.00873 µM) | 1 µg/mL (≈ 1.09 µM) | 0.25 µg/mL (≈ 0.273 µM) | > 0.5 µg/mL | > 128 µg/mL | > 8 µg/mL | 128 µg/mL (≈ 140 µM) | 2 µg/mL (≈ 2.18 µM) | >=1 | 2 | 8 | >8 | Ratio [21]: >8; Ratio [22]: >8; Ratio [23]: 1; Ratio [24]: 1
6 | CC[C@H]1OC(=O)[C@H](C)[C@@H](OC(=O)Cc2ccccn2)[C@H](C)[C@@H](O[C@@H]2O[C@H](C)C[C@H](N(C)C)[C@H]2O)[C@](C)(OC)C[C@@H](C)/C(=N\OCC#Cc2cnc(N)nc2)[C@H](C)[C@H]2OC(=O)O[C@@]21C | 0.016 µg/mL (≈ 0.0182 µM) | 0.5 µg/mL (≈ 0.568 µM) | 0.25 µg/mL (≈ 0.284 µM) | 1 µg/mL (≈ 1.14 µM) | 128 µg/mL (≈ 145 µM) | 8 µg/mL (≈ 9.08 µM) | 0.25 µg/mL (≈ 0.284 µM) | 2 µg/mL (≈ 2.27 µM) | 0.031 µg/mL (≈ 0.0352 µM) | 1 µg/mL (≈ 1.14 µM) | 0.5 µg/mL (≈ 0.568 µM) | > 2 µg/mL | 64 µg/mL (≈ 72.6 µM) | 8 µg/mL (≈ 9.08 µM) | 256 µg/mL (≈ 291 µM) | 4 µg/mL (≈ 4.54 µM) | 2 | 2 | 2 | >8 | Ratio [21]: 8; Ratio [22]: 8; Ratio [23]: 2; Ratio [24]: 2
